Literature values as cited in PMC9097188, “Design, Synthesis, and Molecular Modeling Studies of a Novel Benzimidazole as an Aromatase Inhibitor” (ACS Omega, 2022).

Molecular target: aromatase
Details: 3D-QSAR data set, IC50 converted to pIC50; SI reference list; cited from earlier work

SMILES	Experimental pIC50
CCn1cc([C@@H](c2ccc(Cl)cc2Cl)n2cccc2)c2cc(Br)ccc21 [118S]	6.478
O[C@@](c1cccnc1)(c1cc2ccccc2o1)c1ccc(Cl)cc1Cl [87R]	5.658
Cc1ccc(S(=O)(=O)Nc2ccc3[nH]ccc3c2)cc1 [compound 63]	6.796
O[C@](c1ccc(Br)cc1)(c1cccnc1)c1cc2ccccc2o1 [85R]	4.600
N#Cc1ccc(C(c2[nH]c3ccccc3c2CCNS(=O)(=O)c2ccc(C(F)(F)F)cc2)c2[nH]c3ccccc3c2CCNS(=O)(=O)c2ccc(C(F)(F)F)cc2)cc1 [compound 37]	4.815
O=S(=O)(NCCc1c(C(c2ccc(Br)cc2)c2[nH]c3ccccc3c2CCNS(=O)(=O)c2ccc(C(F)(F)F)cc2)[nH]c2ccccc12)c1ccc(C(F)(F)F)cc1 [compound 39]	5.469
O=[N+]([O-])c1ccc(S(=O)(=O)NCCc2c(C(c3ccc(O)cc3)c3[nH]c4ccccc4c3CCNS(=O)(=O)c3ccc([N+](=O)[O-])cc3)[nH]c3ccccc23)cc1 [compound 49]	5.638
Fc1ccc(C2=Nn3c(nnc3-c3ccc(-c4nc5ccccc5[nH]4)cc3)SC2)cc1 [compound 101]	5.765
N#Cc1ccc(C(c2[nH]c3ccccc3c2CCNS(=O)(=O)c2ccc(Cl)cc2)c2[nH]c3ccccc3c2CCNS(=O)(=O)c2ccc(Cl)cc2)cc1 [compound 35]	5.260
Cc1ccc(S(=O)(=O)NCCc2c(C(c3ccccc3)c3[nH]c4ccccc4c3CCNS(=O)(=O)c3ccc(C)cc3)[nH]c3ccccc23)cc1 [compound 29]	4.924
O=[N+]([O-])c1ccc(C(c2[nH]c3ccccc3c2CCNS(=O)(=O)c2ccc(C(F)(F)F)cc2)c2[nH]c3ccccc3c2CCNS(=O)(=O)c2ccc(C(F)(F)F)cc2)cc1 [compound 34]	5.398
O[C@](c1cccnc1)(c1cc2ccccc2o1)c1ccc(Cl)cc1Cl [87S]	5.658
CC(C)n1cc([C@@H](c2ccc(F)cc2)n2ccnc2)c2cc(Br)ccc21 [78R]	6.495
O=S(=O)(NCCc1c(C(c2ccc(C(F)(F)F)cc2)c2[nH]c3ccccc3c2CCNS(=O)(=O)c2ccc(Br)cc2)[nH]c2ccccc12)c1ccc(Br)cc1 [compound 43]	5.420
N#Cc1ccc(-n2cc(Cn3ccnc3)c3ccccc32)cc1 [compound 116]	5.851
CCn1c([C@H](c2cccc(Cl)c2)n2ccnc2)c(C)c2cc(Br)ccc21 [69S]	6.027
Clc1cccc([C@@H](c2ccc3[nH]ccc3c2)n2ccnc2)c1 [3R]	6.527
Cc1[nH]c2ccccc2c1C=NNc1cccc(Cl)c1 [compound 106]	4.718
O=C1Nc2ccccc2C1(c1[nH]c2ccccc2c1CCNS(=O)(=O)c1ccc(Cl)cc1)c1[nH]c2ccccc2c1CCNS(=O)(=O)c1ccc(Cl)cc1 [compound 60]	5.081
O=S(=O)(NCCc1c(C(c2ccc(Br)cc2)c2[nH]c3ccccc3c2CCNS(=O)(=O)c2ccc(Cl)cc2)[nH]c2ccccc12)c1ccc(Cl)cc1 [compound 38]	5.569
CC(C)n1cc([C@H](c2ccc(F)cc2)n2ccnc2)c2cc(Br)ccc21 [78S]	6.495
O=S(=O)(NCCc1c[nH]c2ccccc12)c1ccccc1 [compound 65]	6.699

SMILES	Experimental pIC50
Cc1ccc2cc(Cn3ccnc3)n(-c3ccc(C#N)cc3)c2c1 [compound 19]	7.568
CCn1cc([C@@H](c2ccc(F)cc2)n2cncn2)c2cc(Br)ccc21 [119R]	6.016
Cc1ccc2nc(-c3ccc(-c4nnc5n4N=C(c4ccc(F)cc4)CS5)cc3)[nH]c2c1 [compound 80]	5.906
Fc1ccc(C2=Nn3c(nnc3-c3ccc(-c4nc5ccc(Cl)cc5[nH]4)cc3)SC2)cc1 [compound 102]	5.643
CCn1cc([C@@H](c2ccc(F)cc2)n2cncn2)c2cc(Br)ccc21 [123R]	5.149
Fc1ccccc1-n1cc(Cn2ccnc2)c2ccccc21 [compound 114]	6.377
O=S(=O)(NCCc1c(C(c2ccc(F)cc2)c2[nH]c3ccccc3c2CCNS(=O)(=O)c2ccc(C(F)(F)F)cc2)[nH]c2ccccc12)c1ccc(C(F)(F)F)cc1 [compound 42]	5.357
CCn1c([C@@H](c2ccc(F)cc2)n2ccnc2)c(C)c2ccccc21 [73R]	6.921
O=S(=O)(NCCc1c(C(c2ccc3c(c2)Cc2ccccc2-3)c2[nH]c3ccccc3c2CCNS(=O)(=O)c2ccc(Cl)cc2)[nH]c2ccccc12)c1ccc(Cl)cc1 [compound 57]	5.056
N#Cc1ccc(-n2cc(CO)c3ccccc32)cc1 [compound 111]	7.301
CCn1cc([C@@H](c2ccc(Cl)cc2Cl)n2cncn2)c2cc(Br)ccc21 [120S]	6.206
O[C@@](c1ccc(Br)cc1)(c1cccnc1)c1cc2ccccc2o1 [85S]	4.600
COc1ccc2cc(Cn3ccnc3)n(-c3ccc(F)cc3)c2c1 [compound 21]	7.310
O=[N+]([O-])c1ccc(C(c2[nH]c3ccccc3c2CCNS(=O)(=O)c2ccc(Br)cc2)c2[nH]c3ccccc3c2CCNS(=O)(=O)c2ccc(Br)cc2)cc1 [compound 32]	5.569
O=C1Nc2ccccc2C1(c1[nH]c2ccccc2c1CCNS(=O)(=O)c1cccc([N+](=O)[O-])c1)c1[nH]c2ccccc2c1CCNS(=O)(=O)c1cccc([N+](=O)[O-])c1 [compound 61]	4.924
N#Cc1ccc(C(c2[nH]c3ccccc3c2CCNS(=O)(=O)c2ccc(F)cc2)c2[nH]c3ccccc3c2CCNS(=O)(=O)c2ccc(F)cc2)cc1 [compound 36]	5.009
O=S(=O)(NCCc1c(C(c2ccc(O)cc2)c2[nH]c3ccccc3c2CCNS(=O)(=O)c2ccc(Cl)cc2)[nH]c2ccccc12)c1ccc(Cl)cc1 [compound 47]	5.854
COc1ccc(S(=O)(=O)NCCc2c(C(c3cc(OC)c(O)c(OC)c3)c3[nH]c4ccccc4c3CCNS(=O)(=O)c3ccc(OC)cc3)[nH]c3ccccc23)cc1 [compound 56]	5.602
OCc1cn(-c2ccccc2F)c2ccccc12 [compound 109]	6.907
O=S(=O)(NCCc1c(C(c2ccc(F)cc2)c2[nH]c3ccccc3c2CCNS(=O)(=O)c2ccc(Cl)cc2)[nH]c2ccccc12)c1ccc(Cl)cc1 [compound 41]	5.268
O=S(=O)(NCCc1c(C(c2ccc(O)cc2)c2[nH]c3ccccc3c2CCNS(=O)(=O)c2ccc(C(F)(F)F)cc2)[nH]c2ccccc12)c1ccc(C(F)(F)F)cc1 [compound 48]	5.886
CCn1c2ccccc2c2cc(C(c3[nH]c4ccccc4c3CCNS(=O)(=O)c3ccccc3)c3[nH]c4ccccc4c3CCNS(=O)(=O)c3ccccc3)ccc21 [compound 58]	5.409

SMILES	Experimental pIC50
Cc1ccc2nc(-c3ccc(-c4nnc5n4N=C(c4ccc(C#N)cc4)CS5)cc3)[nH]c2c1 [compound 81]	5.871
O=S(=O)(NCCc1c(C(c2ccccc2O)c2[nH]c3ccccc3c2CCNS(=O)(=O)c2ccc(Cl)cc2)[nH]c2ccccc12)c1ccc(Cl)cc1 [compound 53]	5.377
CCn1cc([C@H](c2ccc(Cl)cc2Cl)n2cncn2)c2cc(Br)ccc21 [120R]	6.206
COc1ccc(S(=O)(=O)NCCc2c(C3(c4[nH]c5ccccc5c4CCNS(=O)(=O)c4ccc(OC)cc4)C(=O)Nc4ccccc43)[nH]c3ccccc23)cc1 [compound 59]	5.553
Cc1ccc2cc(Cn3ccnc3)n(-c3ccccc3)c2c1 [compound 15]	7.670
Cc1ccc2[nH]c(-c3ccc(-c4nnc5n4N=C(c4ccc(Cl)cc4)CS5)cc3)nc2c1 [compound 79]	5.927
CCn1cc([C@@H](c2ccccc2Cl)n2ccnc2)c2cc(Br)ccc21 [121S]	6.009
CCn1c([C@@H](c2cccc(Cl)c2)n2ccnc2)c(C)c2cc(Br)ccc21 [69R]	6.027
Clc1cccc([C@H](c2ccc3[nH]ccc3c2)n2ccnc2)c1 [3S]	6.527
Cc1[nH]c2ccccc2c1C=NNc1cccc(F)c1 [compound 104]	4.939
CCn1cc([C@@H](c2ccc(F)cc2)n2ccnc2)c2cc(C#N)ccc21 [76R]	6.495
O=S(=O)(NCCc1c(C(c2ccc(F)cc2)c2[nH]c3ccccc3c2CCNS(=O)(=O)c2ccc(Br)cc2)[nH]c2ccccc12)c1ccc(Br)cc1 [compound 40]	5.119
O=[N+]([O-])c1ccc(S(=O)(=O)NCCc2c(C(c3ccccc3O)c3[nH]c4ccccc4c3CCNS(=O)(=O)c3ccc([N+](=O)[O-])cc3)[nH]c3ccccc23)cc1 [compound 51]	5.553
O=S(=O)(NCCc1c(C(c2ccc(C(F)(F)F)cc2)c2[nH]c3ccccc3c2CCNS(=O)(=O)c2ccc(C(F)(F)F)cc2)[nH]c2ccccc12)c1ccc(C(F)(F)F)cc1 [compound 45]	5.638
COc1ccc(S(=O)(=O)NCCc2c(C(c3ccccc3O)c3[nH]c4ccccc4c3CCNS(=O)(=O)c3ccc(OC)cc3)[nH]c3ccccc23)cc1 [compound 52]	6.097
O=[N+]([O-])c1cccc(S(=O)(=O)NCCc2c(C(c3ccccc3O)c3[nH]c4ccccc4c3CCNS(=O)(=O)c3cccc([N+](=O)[O-])c3)[nH]c3ccccc23)c1 [compound 54]	5.770
Cc1ccc(S(=O)(=O)NCCc2c(C(c3ccccc3O)c3[nH]c4ccccc4c3CCNS(=O)(=O)c3ccc(C)cc3)[nH]c3ccccc23)cc1 [compound 50]	5.387
O=[N+]([O-])c1ccccc1S(=O)(=O)NCCc1c(C(c2ccccc2O)c2[nH]c3ccccc3c2CCNS(=O)(=O)c2ccccc2[N+](=O)[O-])[nH]c2ccccc12 [compound 55]	5.337
OCc1cn(-c2ccccc2Cl)c2ccccc12 [compound 108]	7.268
COc1ccc(-n2c(Cn3ccnc3)cc3ccccc32)cc1 [compound 12]	7.111
